Measured values from patent US20120295845A1, “IMIDAZO-PYRAZOLES AS GPR119 INHIBITORS” (Pfizer Inc, priority 2009, published 2012).
Where “and” joins values, the source holds several entries; their conditions need not be identical. Equal values may be shown once.

Each compound was assayed against T1, human GPR119 (Homo sapiens, UniProt Q8TDV5) (assay: GPR119 radioligand binding assay ([3H]-Compound A or [3H]-Compound B, membranes of HEK 293FT cells expressing hGPR119)). Details: Ki calculated from IC50 by the Cheng-Prusoff equation; one value per run.
T1 construct: host or cells: HEK293-CRE beta-lactamase cells
T1 sequence (Q8TDV5 1-335): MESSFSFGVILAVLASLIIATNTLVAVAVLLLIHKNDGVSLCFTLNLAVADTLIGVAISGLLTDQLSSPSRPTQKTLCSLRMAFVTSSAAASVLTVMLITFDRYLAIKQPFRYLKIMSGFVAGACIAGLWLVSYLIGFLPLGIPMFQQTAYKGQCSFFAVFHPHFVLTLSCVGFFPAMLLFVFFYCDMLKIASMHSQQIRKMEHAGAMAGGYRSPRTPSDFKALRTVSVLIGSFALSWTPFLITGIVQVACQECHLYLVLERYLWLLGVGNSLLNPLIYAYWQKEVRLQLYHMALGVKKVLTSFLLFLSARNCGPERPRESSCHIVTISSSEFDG
Experimental: HEK 293FT cells (Invitrogen, Carlsbad, Calif.) were grown in a shake flask in 293Freestyle medium (Invitrogen) supplemented with 50 microg/mL neomycin and 10 mM HEPES (37C, 8% carbon dioxide, shaking). The cells were centrifuged gently (approximately 500×g, 10 minutes) and the pellet resuspended in a mixture of Dulbecco's PBS (minus Mg++/Ca++) supplemented with 18% fetal bovine serum (Sigma Aldrich) and P1 virus such that the multiplicity of infection (MOI) was 10 and the final cell density was 1.3×10^6/mL (total volume 2.5 liters). The cells were transferred to a 5 liter Wave Bioreactor Wavebag (Wave Technologies, Mass.) and incubated for 4 hours at 27 degrees Celsius (17 rocks/min, 7 degrees platform angle); at the end of the incubation period, an equal volume (2.5 liters) of 293Freestyle medium supplemented with 30 mM sodium butyrate (Sigma Aldrich) was added (final concentration=15 mM), and the cells were grown for 20 hours (37 degrees Celsius, 8% CO2 [0.2 liters/min}, 25 rocks/minute, 7 degrees platform angle). Cells were harvested via centrifugation (3,000×g, 10 minutes), washed once on DPBS (minus Ca++/Mg++), resuspended in 0.25M sucrose, 25 mM HEPES, 0.5 mM EDTA, pH 7.4 and frozen at −80 degrees Celsius.
The frozen cells were thawed on ice and centrifuged at 700×g (1400 rpm) for 10 minutes at 4 degrees Celsius. The cell pellet was resuspended in 20 mL phosphate-buffered saline, and centrifuged at 1400 rpm for 10 minutes. The cell pellet was then resuspended in homogenization buffer (10 mM HEPES (Gibco #15630), pH 7.5, 1 mM EDTA (BioSolutions, #BIO260-15), 1 mM EGTA (Sigma, #E-4378), 0.01 mg/mL benzamidine (Sigma #B 6506), 0.01 mg/mL bacitracin (Sigma #B 0125), 0.005 mg/mL leupeptin (Sigma #L 8511), 0.005 mg/mL aprotinin (Sigma #A 1153)) and incubated on ice for 10 minutes. Cells were then lysed with 15 gentle strokes of a tight-fitting glass Dounce homogenizer. The homogenate was centrifuged at 1000×g (2200 rpm) for 10 minutes at 4 degrees Celsius. The supernatant was transferred into fresh centrifuge tubes on ice. The cell pellet was resuspended in homogenization buffer, and centrifuged again at 1000×g (2200 rpm) for 10 minutes at 4 degrees Celsius after which the supernatant was removed and the pellet resuspended in homogenization buffer. This process was repeated a third time, after which the supernatants were combined, Benzonase (Novagen # 71206) and MgC12 (Fluka #63020) were added to final concentrations of 1 U/mL and 6 mM, respectively, and incubated on ice for one hour. The solution was then centrifuged at 25,000×g (15000 rpm) for 20 minutes at 4 degrees Celsius, the supernatant was discarded, and the pellet was resuspended in fresh homogenization buffer (minus Benzonase and MgCl2). After repeating the 25,000×g centrifugation step, the final membrane pellet was resuspended in homogenization buffer and frozen at −80 degrees Celsius. The protein concentration was determined using the Pierce BCA protein assay kit (Pierce reagents A #23223 and B #23224).
Test compounds were serially diluted in 100% DMSO (J. T. Baker #922401). 2 microL of each dilution was added to appropriate wells of a 96-well plate (each concentration in triplicate). Unlabeled Compound A (or Compound B), at a final concentration of 10 microM, was used to determine non-specific binding. [^3H]-Compound A (or [^3H]-Compound B) was diluted in binding buffer (50 mM Tris-HCl, pH 7.5, (Sigma #T7443), 10 mM MgCl2 (Fluka 63020), 1 mM EDTA (BioSolutions #BIO260-15), 0.15% bovine serum albumin (Sigma #A7511), 0.01 mg/mL benzamidine (Sigma #B 6506), 0.01 mg/mL bacitracin (Sigma #B 0125), 0.005 mg/mL leupeptin (Sigma #L 8511), 0.005 mg/mL aprotinin (Sigma #A 1153)) to a concentration of 60 nM, and 100 microL added to all wells of 96-well plate (Nalge Nunc # 267245). Membranes expressing GPR119 were thawed and diluted to a final concentration of 20 μg/100 microL per well in Binding Buffer, and 100 microL of diluted membranes were added to each well of 96-well plate. […]

Row | Ki | Structure (SMILES)
1 | 69 nM and 295 nM and 186 nM and 133 nM and 101 nM and 67 nM and 80 nM | Cc1c(O[C@H]2CCN(C(=O)OC3(C)CC3)C[C@H]2F)ncnc1N1CCn2nccc21 (single isomer, unassigned) [Example 6]
2 | 57 nM and 38 nM and 50 nM and 64 nM and 44 nM and 13 nM and 42 nM and 104 nM and 46 nM | Cc1c(O[C@@H]2CCN(C(=O)OC3(C)CC3)C[C@@H]2F)ncnc1N1CCn2nccc21 (single isomer, unassigned) [Example 5]
3 | 140 nM | Cc1c(O[C@H]2CCN(C(=O)OC(C)C)C[C@H]2F)ncnc1N1CCn2nccc21 (racemic) [Example 4, Isopropyl (3R,4S)-4-{[6-(2,3-dihydro-1H-imidazo[1,2-b]pyrazol-1-yl)-5-methylpyrimidin-4-yl]oxy}-3-fluoropiperidine-1-carboxylate (racemic)]
4 | 74 nM and 83 nM and 85 nM and 97 nM and 71 nM and 34 nM and 50 nM | Cc1c(O[C@H]2CCN(C(=O)OC3(C)CC3)C[C@H]2F)ncnc1N1CCn2nccc21 (racemic) [Example 3, 1-Methylcyclopropyl (3R,4S)-4-{[6-(2,3-dihydro-1H-imidazo[1,2-b]pyrazol-1-yl)-5-methylpyrimidin-4-yl]oxy}-3-fluoropiperidine-1-carboxylate (racemic)]
5 | 514 nM and 442 nM and 446 nM and 524 nM | Cc1c(OC2CCN(C(=O)OC(C)C)CC2)ncnc1N1CCn2nccc21 [Example 1, Isopropyl 4-{[6-(2,3-dihydro-1H-imidazo[1,2-b]pyrazol-1-yl)-5-methylpyrimidin-4-yl]oxy}piperidine-1-carboxylate]
6 | 305 nM | Cc1c(OC2CCN(C(=O)OC3(C)CC3)CC2)ncnc1N1CCn2nccc21 [Example 2, 1-Methylcyclopropyl 4-{[6-(2,3-dihydro-1H-imidazo[1,2-b]pyrazol-1-yl)-5-methylpyrimidin-4-yl]oxy}piperidine-1-carboxylate]
